System: S. pneumoniae (Serotype 3; ATCC 6303)
Assay: S. pneumoniae mouse pneumonia model, nebulized salt formulations
Format: in vivo, C57BL/6 mice
Settings: nebulized 2 h before infection; ~0.72 mg Ca/kg, ampicillin ~3 mg/kg

In the case of CC1(C)S[C@@H]2[C@H](NC(=O)[C@H](N)c3ccccc3)C(=O)N2[C@H]1C(=O)O [ampicillin], the “reduction of bacterial titers in lungs relative to saline control” value is reported as 33 fold.
